This note sets out measurements from US5830910A (priority 1995, dated 1998).

Format in all cases: cell-based, rat
Data set [1] has as its system cultured hippocampal neurons. Kind of data set: cells. Conditions: pretreated 1 hr; 100 μM glutamate, 24 hr.
Data set [2] has as its system cultured hippocampal neurons. In words: cells. The conditions noted are these: for viability at 0.1 µM: Rattus norvegicus, Hippocampal neuron. The source says:
(§1) Dissociated embryonic rat hippocampal cell cultures were established and maintained. All procedures conformed with the NIH Guide for the Care and Use of Laboratory Animals and were approved by the University of Kentucky Animal Care and Use Committee. Cultures were maintained on a polyethyleneimine-coated substrate in plastic 35-mm dishes or 96 wall plates (for cell survival studies) or glass-bottom 35-mm dishes (for [Ca^2+ ]i imaging studies). The cell density was ^~ 70-100 cells/mm^2. Cells were maintained in Eagle's minimum essential medium supplemented 10% with fetal bovine serum and containing 20 mM sodium pyruvate. […] Aβ25-35 (Bachem, lot ZJ744) and Aβ1-40 (Bachem, lot ZK600) were stored in the lyophilized form, and stocks were prepared immediately before use by dissolving the peptide at a concentration of 1 mM in sterile distilled water. […] Glutamate and colchicine (Sigma) were prepared as 200-500x stocks in saline. Cytochalasins D and E (Sigma) and calcium ionophore 4-bromo-A23187 (Calbiochem) were prepared as 500x stocks in dimethyl sulfoxide. Vitamin E (α-tocopherol; Sigma) was prepared as a 500x stock in ethanol. Nordihydroguaiaretic acid and FeSo4 were prepared as 500x stocks in sterile water.
(§2) Neuronal survival was quantified by counting viable neurons in the same microscope fields (10x objective) immediately before experimental treatment and at time points after treatment. In addition, cells were grown in 96-well plates and Alamar blue fluorescence (Alamar Laboratories)was quantified by using a fluorescence plate reader. Alamar Blue is a non-fluorescent substrate that, after reduction by cell metabolites, becomes fluorescent. Usually neurons that died in the time intervals (20-48 h) between examination points were absent. Viability of the remaining neurons was assessed by morphological criteria. Neutrons with intact neurites of uniform diameter and a soma with a smooth, round appearance were considered viable, whereas neurons with fragmented neurites and a vacuolated or swollen soma were considered nonviable. Survival values were expressed as percentages of the initial number of neurons present before experimental treatment. Statistical comparisons were made using ANOVA and Scheffe post-hoc tests for pairwise comparisons.
Values represent the means and SEM of 4 separate cultures (cell counts) or 4 culture wells (Alamar blue assay). ^a p<0.05 compared to control value. ^b p<0.001 compound to control value. ^c p<0.01 compared to value for glutamate-treated cultures. ^d p<0.005 compared to value for glutamate-treated cultures. ^e p<0.001 compared to value for Aβ-treated cultures. ^f p<0.001 compared to value for cultures treated with 20 μM glutamate. ^g p<0.001 compared to cultures treated with 50 μM Aβ+20 μM glutamate. n.d. not determined.

The test system of data set [3] is cultured hippocampal neurons. In words: cells.
Description: as §1, §2
FIG. 5. […] Cytochalasin D was added to cultures 30 min prior to exposure to glutamate, and control cultures were exposed to 0.2% dimethylsulfoxide.
(A) Neuronal survival was quantified in cultures that had been pretreated with the indicated concentrations of cytochalasin D and then exposed to 50 μM glutamate for 20 h. Values represent the means and SEM of determinations made in four separate cultures. […] Pairwise statistical comparisons of cytochalasin-treated cultures with the control survival (Scheffe's test) indicated 1 nM cytochalasin D, P<0.05; 10 nM cytochalasin D, P<0.001; 100 and 1000 nM cytochalasin D, P<0.0001.
(B) Neuronal survival was quantified in cultures that had been pretreated with either vehicle (control) or 100 nM cytochalasin D and then exposed to the indicated concentrations of glutamate for 20 h. Values represent the means and SEM of determinations made in four separate cultures. […] ANOVA with Scheffe's post hoc test.
FIG. 6. (A) Cultures were pretreated with 100 nM cytochalasin D (CyD), 100 nM cytochalasin E (CyE), or 100 nM colchicine (Colch). Cultures were then exposed to 50 μM glutamate for 20 h. Values for neuronal survival represent the means and SEM of determinations made in four separate cultures. *P<0.001 compared to control value. **P<0.001 compared to value for cultures exposed to glutamate alone.
[…] Values represent the means and SEM of determinations made in four separate cultures. *P<0.01 compared to value for cultures exposed to 20 μM glutamate alone. **P<0.05 compared to cultures exposed to 50 μM glutamate alone.

Data set [4] concerns cultured hippocampal neurons. Conditions: 100 nM cotreated; 50 μM Aβ25-35, 24 hr.
[5] abbreviates: 100 μM Glutamate + 10 nM substance.
Setting [6] is: 100 μM Glutamate + 100 nM substance.

Like-named read-outs stand apart in the source and are kept apart here.

Consider `COc1cc2c(c(OC)c1OC)-c1ccc(OC)c(=O)cc1[C@@H](NC(C)=O)CC2` [Colchicine, colchicine, reference compound], for which, in data set [1], the “effect on glutamate neurotoxicity” value is on record as “ineffective”. In addition, the “effect on neuronal survival, alone” value in data set [2] (100 nM, alone) is listed as “reduced survival”. Besides, the viability at 0.1 µM in data set [2] (100 nM, alone, read-out: Neuron Survival (% of control), Alamar Blue Assay) was found to be 40 ± 5.2%; in data set [2] (50 μM Aβ + 100 nM substance, read-out: Neuron Survival (% of control), Alamar Blue Assay), 23 ± 2.8%; in data set [2] (100 μM Glutamate + 100 nM substance, read-out: Neuron Survival (% of control), Alamar Blue Assay), 12 ± 2.2%; in data set [2] (read-out: Neuron Survival (% of control), Cell Counts, 100 nM, alone), 85 ± 1.9%. Further, the “protection against glutamate toxicity” value in data set [3] (100 nM, 50 μM glutamate, 20 h) was “did not protect neurons against glutamate toxicity”. Also, the “effect on Aβ neurotoxicity” value in data set [4] was “exacerbated Aβ toxicity”.
With `C=C1[C@@H](C)[C@H]2[C@H](Cc3ccccc3)NC(=O)[C@]23[C@H](OC(C)=O)/C=C/[C@@](C)(O)C(=O)[C@@H](C)C/C=C/[C@H]3[C@@H]1O` [Cytochalasin D, cytochalasin D], in data set [1], the “effect on glutamate neurotoxicity” value is “significantly attenuated”. Further, the “Neuron Survival (% of control), Alamar Blue Assay” value is 97 ± 7.8 % of control in data set [2] (10 nM, alone); 91 ± 5.9 % of control in data set [2] (100 nM, alone); 55 ± 2.5 % of control in data set [2] (50 μM Aβ + 10 nM substance); 74 ± 1.3 % of control in data set [2] (50 μM Aβ + 100 nM substance); 63 ± 2.5 % of control in data set [2] (50 μM Aβ + 20 μM Glut with 100 nM substance); 43 ± 6.7 % of control in data set [2] (setting [5]). For the same molecule, in data set [2] (setting [6]), the “Neuron Survival (% of control), Alamar Blue Assay” value is 42 ± 4.2 % of control. Moreover, the “Neuron Survival (% of control), Cell Counts” value in data set [2] (10 nM, alone) is on record as 89 ± 2.4 % of control; in data set [2] (100 nM, alone) it was 87 ± 2.2 % of control; in data set [2] (setting [5]) it was 54 ± 7.4 % of control; in data set [2] (setting [6]), 45 ± 9.8 % of control. Further, the “effect on neuronal survival, alone” value in data set [2] (1-100 nM, alone) is “no significant effect on neuronal survival”; in data set [3] (10-100 nM alone, 20-h exposure), “no significant effect on neuronal survival”. The “neuronal survival upon exposure to glutamate” value in data set [3] (100 nM pretreatment, 10 μM (P<0.05), 50 μM (P<0.001), 100 μM (P<0.02) glutamate, 20 h) is reported as “significantly greater”. Also, the “neurons killed upon exposure to glutamate” value in data set [3] (100 nM pretreatment, 50 μM glutamate, 20 h) is on record as below 10%. The “effect on Aβ neurotoxicity” value in data set [4] is listed as “essentially eliminated”.
